Reference: ChEMBL document CHEMBL1154574, “Cytonic acids A and B: novel tridepside inhibitors of hCMV protease from the endophytic fungus Cytonaema species” (J Nat Prod, 2000)

Experiment: Inhibition of human cytomegalovirus protease by scintillation proximity assay
Set-up: species or system Human betaherpesvirus 5

IC50 [µM]	SMILES
11	CCCCCc1cc(OC(=O)c2c(O)cc(OC(=O)c3c(O)cc(O)cc3CCC)cc2CCC)cc(O)c1C(=O)O [CYTONIC ACID B]
43	CCCCCc1cc(O)cc(O)c1C(=O)Oc1cc(O)c(C(=O)Oc2cc(O)c(C(=O)O)c(CCC)c2)c(CCC)c1 [CYTONIC ACID A]
